Experimental findings from patent US20080312287A1, “Compound and Methods For the Treatment of Cancer and Malaria” (University of Washington, priority 2005, published 2008) are described below.

For one assay, the target named is T1, PfPFT (Plasmodium falciparum, UniProt Q8I503+Q8IHP6).
T1 sequence (Q8I503 1-521): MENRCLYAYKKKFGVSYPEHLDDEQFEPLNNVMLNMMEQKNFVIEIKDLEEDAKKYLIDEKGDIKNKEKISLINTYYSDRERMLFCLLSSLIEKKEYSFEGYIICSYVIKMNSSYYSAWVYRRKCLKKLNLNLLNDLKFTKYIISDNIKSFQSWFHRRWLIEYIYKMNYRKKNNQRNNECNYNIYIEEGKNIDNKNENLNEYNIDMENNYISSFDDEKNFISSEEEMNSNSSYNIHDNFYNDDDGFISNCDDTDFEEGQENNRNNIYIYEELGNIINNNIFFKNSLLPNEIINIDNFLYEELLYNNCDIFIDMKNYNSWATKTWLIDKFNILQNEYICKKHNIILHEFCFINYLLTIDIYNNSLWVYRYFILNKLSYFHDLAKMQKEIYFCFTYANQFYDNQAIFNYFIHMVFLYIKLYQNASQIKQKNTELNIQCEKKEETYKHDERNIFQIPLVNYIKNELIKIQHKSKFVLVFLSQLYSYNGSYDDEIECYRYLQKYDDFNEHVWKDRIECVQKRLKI
T1 sequence (Q8IHP6 1-923): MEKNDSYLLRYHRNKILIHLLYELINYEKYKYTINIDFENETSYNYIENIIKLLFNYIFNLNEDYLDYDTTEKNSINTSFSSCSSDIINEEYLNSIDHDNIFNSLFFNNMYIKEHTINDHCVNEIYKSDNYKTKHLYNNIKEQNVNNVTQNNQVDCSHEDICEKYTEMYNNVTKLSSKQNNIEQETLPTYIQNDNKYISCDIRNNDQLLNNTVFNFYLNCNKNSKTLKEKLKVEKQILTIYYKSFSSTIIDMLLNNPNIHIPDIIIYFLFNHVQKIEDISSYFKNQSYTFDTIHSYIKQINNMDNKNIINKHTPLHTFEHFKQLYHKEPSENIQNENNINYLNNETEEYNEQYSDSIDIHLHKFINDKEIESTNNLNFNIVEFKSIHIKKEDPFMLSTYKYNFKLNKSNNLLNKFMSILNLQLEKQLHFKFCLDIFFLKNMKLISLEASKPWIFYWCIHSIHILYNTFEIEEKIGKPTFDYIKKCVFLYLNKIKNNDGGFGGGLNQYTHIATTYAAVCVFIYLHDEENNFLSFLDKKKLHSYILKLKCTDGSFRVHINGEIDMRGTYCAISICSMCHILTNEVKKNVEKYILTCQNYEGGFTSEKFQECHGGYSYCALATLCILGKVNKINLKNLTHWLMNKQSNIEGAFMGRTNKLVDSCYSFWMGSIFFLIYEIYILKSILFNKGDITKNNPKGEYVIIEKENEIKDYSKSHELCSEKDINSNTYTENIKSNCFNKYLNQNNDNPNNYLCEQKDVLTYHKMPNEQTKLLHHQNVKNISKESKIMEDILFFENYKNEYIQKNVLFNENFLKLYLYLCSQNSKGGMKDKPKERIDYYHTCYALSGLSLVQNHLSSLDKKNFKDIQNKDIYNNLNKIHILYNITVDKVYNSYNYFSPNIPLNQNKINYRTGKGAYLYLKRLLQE
The assay can be described thus: PfPFT inhibition, scintillation proximity assay with partially purified PfPFT. Type of assay: biochemical. The settings on record: for inhibition at 0.005 µM: read-out: % Inhibition of PfPFT at 5 nM, inhibitor at 5 nM; for inhibition at 0.05 µM: read-out: % Inhibition of PfPFT at 50 nM, inhibitor at 50 nM.

Another assay has as its system P. falciparum 3D7. The assay can be described thus: P. falciparum ED50 determination, [3H]-hypoxanthine incorporation, strain 3D7. The settings on record: Plasmodium falciparum. Type of assay: cell-based, Plasmodium falciparum. From the text:
(§1) Plasmodium strains. The P. falciparum strains used in this study were 3D7 (Netherlands, sensitive) provided by Dr. Pradipsinh Rathod from the University of Washington and K1 (Thailand, ChQ-R, Pyr-R) obtained from the MR4Unit of the American Type Culture Collection (ATCC, Manassas, Va.).
(§2) P. falciparum culture. Strains of P. falciparum were sustained in vitro based on experimental techniques as described by Trager and Jensen.^26 Cultures were maintained in RPMI-1640 (Sigma, St. Louis, […].) with 2 mM L-glutamine, 25 mM HEPES, 33 mM NaHCO3, 20 μg/ml gentamicin sulfate and 20% (v/v) heat-inactivated human plasma type A+ (R^P-20P). Type A+ erythrocytes were obtained from lab donors, washed three times with RPMI, re-suspended in 50% RPMI, and stored at 4° C. Parasites were grown in 10 mL of a 2% hematocrit/RP-20P (v/v) in 50-mL flasks under a 5% CO2, 5% O2, and 90% N2 atmosphere.
(§3) P. falciparum ED50 determination. One […]L of PFTI dissolved in DMSO was added to each well of a 96-well plate followed by the addition of 200 μL of P. falciparum culture at parasitemia and hematocrit of 0.5%. Plates were flushed with 5% CO2, 5% O2, and 90% N2 then incubated at 37° C. for 48 hr. [8-^3H]-hypoxanthine (0.3 μCi, 20 Ci/mmol, American Radiolabeled Chemicals) in 30 μL RP-20P was added to cultures and incubated for an additional 24 hours. Cells were harvested onto filter mats by a Multiharvester (Skatron, Sunnyvale, Calif.) and the radioactivity incorporated into the parasites was counted on a β-scintillation counter. The background level detected with uninfected erythrocytes was subtracted from the data. The ^3H-incorporation into infected RBCs with 1 μL DMSO vehicle alone represents 100% malaria growth. ED50 values were determined by linear regression analysis of the plots of ^3H-hypoxanthine incorporation versus concentration of compound.

A further assay relates to P. falciparum K1. The assay can be described thus: P. falciparum ED50 determination, [3H]-hypoxanthine incorporation, strain K1. Type of assay: cell-based, Plasmodium falciparum. The settings on record: Plasmodium falciparum.
Source text: as §1, §2, §3

The mark [1] stands for this setting: 3D7, strain 3D7, concentration decreasing hypoxanthine incorporation into parasites twofold, read-out: ED50 3D7.
[2] abbreviates: K1, strain K1, concentration decreasing hypoxanthine incorporation into parasites twofold, read-out: ED50 K1.

Like-named read-outs stand apart in the source and are kept apart here.

By IC50 is commonly meant the concentration that gives 50% inhibition. A lower IC50 goes with higher potency. For orientation: inhibition means the percentage by which the read-out fell short of the control. Consider `Cn1cnc(S(=O)(=O)N(CCN(Cc2cncn2C)c2ccc(C#N)cc2)Cc2ccc(-n3cccc3)cc2)c1` [Compound 8ai, 1-Methyl-1H-imidazole-4-sulfonic acid {2-[(4-cyano-phenyl)-(3-methyl-3H-imidazol-4-ylmethyl)-amino]-ethyl}-(4-pyrrol-1-yl-benzyl)-amide], for which the IC50 on PfPFT (concentration decreasing transferase activity twofold) was 11 nM. At PfPFT, the inhibition at 0.005 µM is 39% and the inhibition at 0.05 µM is 85%. For the same compound, the EC50 in the assay with P. falciparum 3D7 (setting [1]) is 257 nM. The EC50 in the assay on P. falciparum K1 (setting [2]) came out at 410 nM.
For the compound `Cn1cncc1CN(CCN(Cc1ccccc1)S(=O)(=O)c1cccs1)c1ccc(C#N)cc1` [Compound 8f, Thiophene-2-sulfonic acid benzyl-{2-[(4-cyano-phenyl)-(3-methyl-3H-imidazol-4-ylmethyl)-amino]-ethyl}-amide], at PfPFT, the inhibition at 0.005 µM was 17% and the inhibition at 0.05 µM was determined as 74%. For the same compound, the EC50 in the assay with P. falciparum 3D7 (setting [1]) amounted to 550 nM. In the assay with P. falciparum K1 (setting [2]), the EC50 stood at 1120 nM.
As to `Cn1cncc1CN(CCN(Cc1ccccc1)S(=O)(=O)c1cccc2cccnc12)c1ccc(C#N)cc1` [Compound 8h, Quinoline-8-sulfonic acid benzyl-{2-[(4-cyano-phenyl)-(3-methyl-3H-imidazol-4-ylmethyl)-amino]-ethyl}-amide], at PfPFT, the inhibition at 0.005 µM amounted to 14% and the inhibition at 0.05 µM stood at 35%. The EC50 in the assay with P. falciparum 3D7 (setting [1]) stood at 2100 nM. Moreover, the EC50 in the assay on P. falciparum K1 (setting [2]) was determined as 2400 nM.
In the case of `CC(=O)N(CCN(Cc1cncn1C)c1ccc(C#N)cc1)Cc1ccccc1` [Compound 8j, N-Benzyl-N-{2-[(4-cyano-phenyl)-(3-methyl-3H-imidazol-4-ylmethyl)-amino]-ethyl}-acetamide], on PfPFT, the inhibition at 0.005 µM was determined as 0% and the inhibition at 0.05 µM worked out at 56%. Moreover, the EC50 with P. falciparum 3D7 (3D7, read-out: ED50 3D7) was determined as 2500 nM. For the same compound, the EC50 in the assay on P. falciparum K1 (K1, read-out: ED50 K1) was more than 5000 nM.
On to `CC(C)C(=O)N(CCN(Cc1cncn1C)c1ccc(C#N)cc1)Cc1ccccc1` [Compound 8k, N-Benzyl-N-{2-[(4-cyano-phenyl)-(3-methyl-3H-imidazol-4-ylmethyl)-amino]-ethyl}-isobutyramide], for which the inhibition at 0.005 µM at PfPFT was 0%. Moreover, at PfPFT, the inhibition at 0.05 µM is 61%. For the same compound, the EC50 was 2000 nM with P. falciparum 3D7 (setting [1]) and more than 5000 nM in the assay on P. falciparum K1 (setting [2]).
For `C=CCN(CCN(Cc1cncn1C)c1ccc(C#N)cc1)S(=O)(=O)c1cn(C)cn1` [Compound 8l, 1-Methyl-1H-imidazole-4-sulfonic acid allyl-{2-[(4-cyano-phenyl)-(3-methyl-3H-imidazol-4-ylmethyl)-amino]-ethyl}-amide] the same measures were 1%, 42%, more than 5000 nM and more than 5000 nM.
As to `C=C(C)CN(CCN(Cc1cncn1C)c1ccc(C#N)cc1)S(=O)(=O)c1cn(C)cn1` [Compound 8m, 1-Methyl-1H-imidazole-4-sulfonic acid {2-[(4-cyano-phenyl)-(3-methyl-3H-imidazol-4-ylmethyl)-amino]-ethyl}-(2-methyl-allyl)-amide], at PfPFT, the inhibition at 0.005 µM turned out to be 6% and the inhibition at 0.05 µM came to 77%. For the same compound, in the assay with P. falciparum 3D7 (setting [1]), the EC50 is more than 5000 nM. In addition, in the assay on P. falciparum K1 (setting [2]), the EC50 is more than 5000 nM.
Consider `C=C(Br)CN(CCN(Cc1cncn1C)c1ccc(C#N)cc1)S(=O)(=O)c1cn(C)cn1` [Compound 8n, 1-Methyl-1H-imidazole-4-sulfonic acid (2-bromo-allyl)-{2-[(4-cyano-phenyl)-(3-methyl-3H-imidazol-4-ylmethyl)-amino]-ethyl}-amide], for which, at PfPFT, the inhibition at 0.005 µM came out at 25%. Further, the inhibition at 0.05 µM at PfPFT came out at 80%. The EC50 in the assay with P. falciparum 3D7 (setting [1]) and with P. falciparum K1 (setting [2]) was more than 5000 nM throughout.
As for `Cn1cnc(S(=O)(=O)N(CCN(Cc2cncn2C)c2ccc(C#N)cc2)CCn2cccc2)c1` [Compound 8p, 1-Methyl-1H-imidazole-4-sulfonic acid {2-[(4-cyano-phenyl)-(3-methyl-3H-imidazol-4-ylmethyl)-amino]-ethyl}-(2-pyrrol-1-yl-ethyl)-amide], on PfPFT, the inhibition at 0.005 µM turned out to be 11% and the inhibition at 0.05 µM was determined as 56%. Moreover, the EC50 in the assay with P. falciparum 3D7 (setting [1]) was more than 5000 nM. For the same compound, in the assay with P. falciparum K1 (setting [2]), the EC50 is more than 5000 nM.
